Results on 5 compounds are retold here after publication PMC10135297, “Peptide-Resorcinarene Conjugates Obtained via Click Chemistry: Synthesis and Antimicrobial Activity” (Antibiotics, 2023).

For one data set, the system named is E. coli ATCC 25922. It counts as cell-based, Escherichia coli. The method, then: (§1) The minimum inhibitory concentration (MIC) was determined using a broth microdilution assay. Specifically, […] of Mueller Hinton broth and 90 μL of peptide (initial concentration 444 μg/mL) were added to a 96-well plate, with serial dilutions (200, 100, 50, 25, 12.5, and […] μg/mL). Then, 10 μL (5 × 10^5 CFU/mL) of inoculum was added to each well, and the final volume in each well was 100 μL. They were incubated for 24 h at 37 °C, and absorbance at 620 nm was measured using the ELISA reader. To determine the minimum bactericidal concentration (MBC), an aliquot was taken from each well and placed on a Mueller Hinton Agar plate. After 24 h of incubation at 37 °C, the MBC was determined. Each of these tests was performed in duplicate.

The subject of a further data set is S. aureus ATCC 25923. It counts as cell-based, Staphylococcus aureus. Conditions: for MBC S. aureus 25923: ATCC 25923, 24 h; for MIC S. aureus 25923: broth microdilution, Mueller Hinton broth, 24 h at 37 °C, absorbance 620 nm, in duplicate, strain sensitive to vancomycin. On the procedure: as §1
In a further data set the test system is HeLa cell line. The conditions noted are these: cited from earlier work. On the procedure: (§2) Finally, the cytotoxic effect of the conjugates over fibroblasts, MCF-7, and HeLa cell lines was evaluated (Figure 7).
In the next data set the test system is MCF-7 cell line. Conditions: cited from earlier work. The method, then: as §2
In a further data set the test system is erythrocytes. The format is cell-based. On the procedure:
First, 5.0 mL of heparinized peripheral blood was centrifuged at 1000 rpm for 7 min. The erythrocyte fraction was suspended in […] saline solution (SS) and washed twice by centrifugation at 1000 rpm for 7 min. The erythrocytes (2% hematocrit) were incubated with peptide (ranging from 6.2 to 200 µg/mL) for 2 h at 37 °C. SS was used as a negative control, while distilled water was used as a positive control. The mixtures were centrifuged, the supernatants were collected, and the absorbance was determined to be 540 nm.

The subject of the next data set is C. albicans SC5314 (S). More on the design: method as in PMID 36358216. Conditions: sensitive to fluconazole; cited from earlier work.
Data set [1] has as its system C. albicans 256 HUSI-PUJ (R). More on the design: method as in PMID 36358216. Conditions: resistant to fluconazole; cited from earlier work.

Converted amounts (≈) assume the structure as drawn. Where two headings read alike, the source gives them in different places. Peptide text beside a SMILES is read from it. Bounds are passed on as bounds.

As to `CC(C)C[C@H](NC(=O)[C@H](CC(C)C)NC(=O)[C@@H](N)CCCNC(=N)N)C(=O)N[C@@H](CCCNC(=N)N)C(N)=O` [RLLR] (H-RLLR-NH2), in the data set on E. coli ATCC 25922 (ATCC 25922, 24 h), the MBC E. coli 25922 is more than 359 µM and the MIC E. coli 25922 is more than 359 µM. Besides, in the data set on S. aureus ATCC 25923, the MBC S. aureus 25923 is more than 359 µM and the MIC S. aureus 25923 was more than 359 µM.

In the data set with E. coli ATCC 25922 (ATCC 25922, 24 h), `N=C(N)NCCC[C@H](NC(=O)[C@H](Cc1c[nH]c2ccccc12)NC(=O)[C@H](CCC(N)=O)NC(=O)[C@H](Cc1c[nH]c2ccccc12)NC(=O)[C@H](CCCNC(=N)N)NC(=O)[C@@H](N)CCCNC(=N)N)C(N)=O` [RRWQWR] (H-RRWQWR-NH2) gave an MBC E. coli 25922 of 203 µM (≈ 200 µg/mL) and an MIC E. coli 25922 of 203 µM (≈ 200 µg/mL). In the data set with S. aureus ATCC 25923, this compound registered an MBC S. aureus 25923 of more than 203 µM and an MIC S. aureus 25923 of more than 203 µM.

Consider (RRWQWR)4-K2-C2, for which, in the data set with HeLa cell line, the “Cytotoxicity against HeLa” value is recorded as “exhibited cytotoxicity”. The “Cytotoxicity against MCF-7” value with MCF-7 cell line is given as “exhibited cytotoxicity”.

Compound “CTpH(F)-(AAC-(K)-RRWQWR)4 (rctt) [tetravalent (peptide)4-resorcinarene conjugate with four copies of RRWQWR on CTpH(F)]” had an MBC E. coli 25922 with E. coli ATCC 25922 (aliquot of each MIC well on Mueller Hinton Agar, 24 h at 37 °C, in duplicate) of 36 µM. This compound also registered an MIC E. coli 25922 against E. coli ATCC 25922 (broth microdilution, Mueller Hinton broth, 24 h at 37 °C, absorbance 620 nm, in duplicate, strain susceptible to ciprofloxacin) of 36 µM. The “Hemolytic effect at the MIC values” in the data set on erythrocytes was “Neither of the two conjugates exhibited a significant hemolytic effect”.

Turning to RLLRRLLR, in the data set with C. albicans SC5314 (S), the “MIC C. albicans strain ATCC SC5314” value is on record as more than 183 µM. Also, in data set [1], the “MIC clinical isolate C. albicans 256 HUSI-PUJ” value is recorded as more than 183 µM.
